Test results from patent US20140377390A1, “Cosmetic Compositions Comprising Plant Extracts for Combating Skin Aging” (CASTER, priority 2013, published 2014).
[ ]: non-standard residue; d: D form. Cit = NC(=O)NCCC[C@H](N)C(=O)O

Columns and labels:
[1] = tested on: MDR (Multidrug Resistance Proteins) in HDFa cells; experiment: MDR activity test (calcein retention, Vybrant MDR Resistance Assay Kit); conditions: 24 hours, control = 100%
Description: In normal cells, non-fluorescent calcein enters the cell and accumulates therein. It is hydrolysed therein by endogenous esterases, and becomes fluorescent. In cells in which MDR expression is increased, the presence of these protein transporters makes it possible to expel the calcein out of the cell before it is cleaved: there is no fluorescence.
To do this, the Molecular Probes Vybrant MDR Resistance Assay Kit (V13180 Invitrogen Life Science) is used.
These cells are then in passage 4. The cells are left to stand for 48 h for adhesion in an incubator at 37° C. and 5% CO2. […] This stock solution at 10 mg/ml is then diluted in PBS until the working concentration is obtained; • 5 wells with FGF (Sigma) at 5 nM final concentration in the well (positive control) or KGF (Sigma) at 25 ng/ml.
The cells comprising active agents are incubated at 37° C., 5% CO2 for 24 hours.
On D3, a labelling solution is prepared by diluting the calcein solution of the kit at 1 mM (component A of the Invitrogen Life Science kit V13180) in PBS, so as to achieve a concentration of 1 μM (1000× dilution); 50 μl of calcein diluted to 1 μM are provided per well, i.e. 5 ml per 96-well plate. […]
The calcein retention is measured on a Perkin Elmer Enspire® Multimode Reader fluorescence spectrophotometer, by reading the fluorescein fluorescence (λexcitation: 494 nm, λemission: 512 nm). […]

[2] = tested on: primary human fibroblast cells (HDFa); experiment: Evaluation of cytotoxicity, MTT colorimetric test (cell vitality); assay type: cell-based; conditions: relative to untreated cells = 100%
Description: This test serves to define the maximum tolerable dose that can be used on the cells without a toxic effect, by means of a rapid and sensitive quantification of the cell proliferation and of the cell viability as a function of the compositions according to the invention.
Briefly, the colorimetric test is based on the activity of a mitochondrial enzyme, succinate dehydrogenase, which degrades the yellow substrate MTT (3-[4,5-dimethylthiazol-2-yl]-2,5-diphenyltetrazolium bromide) into formazan crystals (violet). The amount of formazan salt produced by the cells from the MTT indicates the cell vitality and is measured by spectrophotometry at 570 nm.
In passage 3, the cells were seeded into 96-well plates in a proportion of 2000 cells in a volume of 200 μl of culture medium (Tebu-Bio—Fibroblast Growth Medium—500 ml—Ref 95116500).
On day 7 after seeding of the cells (the medium having been replaced with fresh medium every two days), the culture medium (Tebu-Bio—Fibroblast Growth Medium—500 ml—Ref. 95116500) is removed and 200 μl of the active agent to be tested, diluted in culture medium (no less than 50% of medium), are added and then the cells are reincubated (37° C., 5% CO2).
On the day of the test, 2 ml of fresh MTT solution are prepared by diluting the MTT powder (Thiazolyl Blue Tetrazolium Bromide, Sigma ref. M 5655) to 5 mg/ml in PBS.
20 μl of MTT solution are added to each well. After homogenization, the plate is reincubated (37° C., 5% CO2) for 3 to 4 hours so as to allow metabolization of the MTT.
During this time, the MTT solubilization solution is prepared (DMSO/Isopropanol—1:1). The culture medium is removed by suctioning, and then the plate is dried with absorbent paper. The formazan crystals which have formed are then resuspended with 150 μl of MTT solubilization solution, by agitation at 150 rpm for 15 minutes at ambient temperature.
The optical density is then read at 570 nm on a Perkin Elmer Enspire® Multimode Reader spectrophotometer, with the OD at 670 nm (background noise) being removed.
The result is expressed as a function of the % absorption relative to the % absorption noted for the control cells (not treated with a compound).

COc1ccc(CCN(C)CCCC(C#N)(c2ccc(OC)c(OC)c2)C(C)C)cc1OC (centres unmarked) [Verapamil, verapamil, reference compound]
% calcein retention ([1]; 30 μg/ml, greater than 100 = inhibits MDR activity): 139.1%

H-KDV[Cit]-NH2 [Peptide]
% vitality ([2]; peptide concentration 0.000001%): 94.6%
% vitality ([2]; peptide concentration 0.00001%): 71.0%
% vitality ([2]; peptide concentration 0.00002%): 66.9%
% vitality ([2]; peptide concentration 0.00004%): 72.0%
% vitality ([2]; peptide concentration 0.00006%): 44.7%
% vitality ([2]; peptide concentration 0.00008%): 57.3%
% vitality ([2]; peptide concentration 0.0001%): 39.8%
% vitality ([2]; peptide concentration 0.0002%): 47.6%
% vitality ([2]; peptide concentration 0.005%): 49.7%

B1: KGF: KGF (Sigma), growth factor, positive control (protein, UniProt P21781 32-194, looked up)
Fibroblast growth factor 7: CNDMTPEQMATNVNCSSPERHTRSYDYMEGGDIRVRRLFCRTQWYLRIDKRGKVKGTQEMKNNYNIMEIRTVAVGIVAIKGVESEFYLAMNKEGKLYAKKECNEDCNFKELILENHYNTYASAKWTHNGGEMFVALNQKGIPVRGKKTKKEQKTAHFLPMAIT
% calcein retention ([1]; 25 ng/ml, less than 100 = stimulates MDR activity): 92.3%
